pIC50: −log10 of the molar value.
Experiments:
[1] = target: T1, CHO-K1 cells transfected with human wild type TrkA (Homo sapiens, UniProt P04629); test: TrkA Cell Assay, phospho-TrkA ELISA (Example B); assay type: cell-based; conditions: assay of Example B, 30 ng/mL human NGF, read-out: averaged IC50 value, phospho-TrkA
T1 construct: expressed in transfected cells; host or cells: CHO-K1
Method: CHO-K1 cells transfected with human wild type TrkA were plated in a 96-well flat-bottom plate at 3×10^5 cells/well in complete DMEM medium containing 10% FBS and allowed to attach for 24 hours at 37° C., 5% CO2. Medium was then replaced with complete serum free assay medium and the cells were serum starved for 1 hour at 37° C., 5% CO2. Cells were treated with Compound 1, 2 or 3 using 1:3 serial dilutions with final concentrations ranging from 1 μM to […]. The compound was incubated on cells for 1 hour at 37° C., 5% CO2. Cells were then stimulated with a final concentration of 30 ng/mL human NGF for 7 minutes at 37° C., 5% CO2. Medium was removed and cells were lysed with lysis buffer containing phosphatase and protease inhibitors. Phospho-TrkA was measured by ELISA (R&D Catalog No. DYC2578). The ELISA captured total TrkA and detected total phosphor-tyrosine. Optical density was measured for each well using a Versamax reader at a wave length of 450 nm. The IC50 values were determined by fitting a four parameter model to the percent of control data.

[2] = Liver microsomal clearance, dog; assay type: in vitro ADME; conditions: pH 7.4; Dog liver microsomes; 1 mg/mL; 20 minutes
Method: The predicted hepatic clearance (CLh) value was calculated by scaling the in vitro half-life (t1/2) for stability of the compound in liver microsomes (1 mg/mL; 20 minutes) using the physical and physiological scaling factors used to predict intrinsic clearance (CLint) and hepatic clearance (CLhep) listed in Table 2 and employed in the following equations: […]
where D is the amount of cytochrome P450-related protein per mass of liver, W is the average mass of liver present per weight of animal, C is the liver microsomal concentration, and Q is the species-dependent hepatic blood flow.
A 100 mM potassium phosphate assay buffer solution (KPB) was prepared as follows. Both KH2PO4 and K2HPO4 were dissolved separately in reagent grade water resulting in final concentrations 100 mM. A 75:25 mixture v/v of K2HPO4:KH2PO4 was prepared and the pH of the solution was adjusted to 7.4 using diluted HCl or diluted NaOH solutions. Stock solutions of Compound 1, Compound 2 and Compound 3 were prepared at 10 mM (active compound) in DMSO. The stock solution was diluted immediately before use to 2.5 μM using the KPB solution to create the working standard. All test compounds were completely soluble in DMSO by visual inspection at room temperature. The NADPH-regenerating solution (NRS) was prepared on the day of analysis by diluting one volume of 17 mg/mL NADP^+ with one volume of 78 mg/mL glucose-6-phosphate (both prepared in KPB, pH 7.4) and 7.9 volumes of 20 mM MgCl2. The final concentrations of NADP^+ and glucose-6-phosphate were 1.7 mg/mL and 7.8 mg/mL, respectively. […]
All calculations were performed using BioAssay Enterprise. The mean peak area ratios were calculated by averaging the peak area ratios (n=2) of Compound 1, Compound 2, Compound 3, and the internal standard for each sample. Percent remaining was calculated by determining the ratio of the peak area ratio at each time point to the peak area ratio of the time-zero samples. The rate of loss of test compound (km) was determined by linear regression of −ln(f(t)) versus time. […] The t1/2 was determined dividing ln(2) by km. […]

T1 sequence (P04629 33-796): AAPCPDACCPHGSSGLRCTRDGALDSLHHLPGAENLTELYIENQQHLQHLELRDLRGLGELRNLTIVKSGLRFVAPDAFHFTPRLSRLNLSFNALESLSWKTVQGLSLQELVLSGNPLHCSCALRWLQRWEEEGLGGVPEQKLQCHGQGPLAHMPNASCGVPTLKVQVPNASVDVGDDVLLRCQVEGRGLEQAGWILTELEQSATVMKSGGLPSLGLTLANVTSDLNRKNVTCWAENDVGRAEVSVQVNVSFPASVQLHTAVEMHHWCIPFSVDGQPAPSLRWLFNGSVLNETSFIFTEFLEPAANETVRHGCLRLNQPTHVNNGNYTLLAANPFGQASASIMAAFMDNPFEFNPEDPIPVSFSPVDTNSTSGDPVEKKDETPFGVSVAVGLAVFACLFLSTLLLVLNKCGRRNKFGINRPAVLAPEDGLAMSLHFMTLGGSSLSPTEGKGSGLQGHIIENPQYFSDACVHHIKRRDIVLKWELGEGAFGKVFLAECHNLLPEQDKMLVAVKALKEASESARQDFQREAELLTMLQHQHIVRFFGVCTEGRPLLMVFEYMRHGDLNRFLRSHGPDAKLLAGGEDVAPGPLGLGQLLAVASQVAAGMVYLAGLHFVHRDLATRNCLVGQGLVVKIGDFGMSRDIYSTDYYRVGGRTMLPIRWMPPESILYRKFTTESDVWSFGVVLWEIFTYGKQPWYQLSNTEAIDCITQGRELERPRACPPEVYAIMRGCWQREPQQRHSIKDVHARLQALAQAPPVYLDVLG

pIC50 [1]	CLhep predicted at 1 μM [2]	Compound
8.72	24 mL/min/kg	COCCN1C[C@@H](NC(=O)Nc2c(C)c(-c3cnc(C)nc3)nn2-c2ccccc2)[C@H](c2cccc(F)c2)C1 [Compound 1, 1-((3S,4R)-4-(3-fluorophenyl)-1-(2-methoxyethyl)pyrrolidin-3-yl)-3-(4-methyl-3-(2-methylpyrimidin-5-yl)-1-phenyl-1H-pyrazol-5-yl)urea]
8.89	26 mL/min/kg	COCCN1C[C@@H](NC(=O)Nc2c(C)c(-c3cnc(C)nc3)nn2-c2ccccc2)[C@H](c2ccc(F)c(F)c2)C1 [Compound 2, 1-((3S,4R)-4-(3,4-difluorophenyl)-1-(2-methoxyethyl)pyrrolidin-3-yl)-3-(4-methyl-3-(2-methylpyrimidin-5-yl)-1-phenyl-1H-pyrazol-5-yl)urea]
8.21	23 mL/min/kg	COCCN1C[C@@H](NC(=O)Nc2c(C)c(-c3cnn(C)c3)nn2-c2ccccc2)[C@H](c2ccc(F)cc2)C1 [Compound 3, 1-(1′,4-dimethyl-1-phenyl-1H,1′H-[3,4′-bipyrazol]-5-yl)-3-((3S,4R)-4-(4-fluorophenyl)-1-(2-methoxyethyl)pyrrolidin-3-yl)urea]

— patent US10835533B2, “1 -((3S,4R)-4-(3-fluorophenyl)-1-(2-methoxyethyl)pyrrolidin-3-yl)-3-(4-methyl-3-(2-methylpyrimidin-5-yl)-1-phenyl-1H-pyrazol-5-yl)urea as a TrkA kinase inhibitor” (Array BioPharma Inc., priority 2014, dated 2020)
